ChEMBL document CHEMBL2321802, “Identification of Potent and Selective Diphenylpropanamide RORγ Inhibitors” (ACS Med Chem Lett, 2013)
pIC50: −log10 of the molar value. Active and inactive are the calls of the source. The calls are words filed in the database; no cut-off is given here.

Legend:
[1] = molecular target: T1, Nuclear receptor ROR-alpha (Homo sapiens) (UniProt P35398); test: Antagonist activity at transactivation domain of RORalpha (unknown origin) expressed in Drosophila Schneider cells co-expressing Gal4-DNA binding domain up to 96 uM; assay type: cell-based; conditions: Schneider 2
T1 sequence (whole entry): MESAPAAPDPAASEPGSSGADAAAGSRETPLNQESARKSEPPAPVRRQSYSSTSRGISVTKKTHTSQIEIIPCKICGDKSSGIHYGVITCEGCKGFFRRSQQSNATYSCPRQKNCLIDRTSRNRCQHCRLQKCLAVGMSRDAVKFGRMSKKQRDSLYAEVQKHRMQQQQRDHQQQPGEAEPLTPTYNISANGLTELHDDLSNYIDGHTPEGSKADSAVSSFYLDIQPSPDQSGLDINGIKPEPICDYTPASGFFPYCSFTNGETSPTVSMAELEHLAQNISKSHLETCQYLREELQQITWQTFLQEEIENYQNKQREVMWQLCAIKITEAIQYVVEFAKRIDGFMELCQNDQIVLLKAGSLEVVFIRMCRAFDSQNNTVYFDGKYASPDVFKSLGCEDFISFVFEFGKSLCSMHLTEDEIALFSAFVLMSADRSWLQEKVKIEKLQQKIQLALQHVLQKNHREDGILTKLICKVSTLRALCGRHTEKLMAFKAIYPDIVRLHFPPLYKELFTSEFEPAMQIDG

Schneider 2 = test: Antagonist activity at HSV transactivation domain of VP16 expressed in Drosophila Schneider cells co-expressing Gal4-DNA binding domain up to 96 uM; assay type: cell-based; conditions: Human alphaherpesvirus 1
[2] = Cytotoxicity against human Th17 cells up to 96 uM; assay type: cell-based
[3] = molecular target: T2, Probable nuclear hormone receptor HR3 (Drosophila melanogaster) (UniProt P31396); test: Antagonist activity at Drosophila melanogaster transactivation domain of DHR3 expressed in Drosophila Schneider cells co-expressing Gal4-DNA binding domain up to 96 uM; assay type: cell-based; conditions: Schneider 2
T2 sequence (whole entry): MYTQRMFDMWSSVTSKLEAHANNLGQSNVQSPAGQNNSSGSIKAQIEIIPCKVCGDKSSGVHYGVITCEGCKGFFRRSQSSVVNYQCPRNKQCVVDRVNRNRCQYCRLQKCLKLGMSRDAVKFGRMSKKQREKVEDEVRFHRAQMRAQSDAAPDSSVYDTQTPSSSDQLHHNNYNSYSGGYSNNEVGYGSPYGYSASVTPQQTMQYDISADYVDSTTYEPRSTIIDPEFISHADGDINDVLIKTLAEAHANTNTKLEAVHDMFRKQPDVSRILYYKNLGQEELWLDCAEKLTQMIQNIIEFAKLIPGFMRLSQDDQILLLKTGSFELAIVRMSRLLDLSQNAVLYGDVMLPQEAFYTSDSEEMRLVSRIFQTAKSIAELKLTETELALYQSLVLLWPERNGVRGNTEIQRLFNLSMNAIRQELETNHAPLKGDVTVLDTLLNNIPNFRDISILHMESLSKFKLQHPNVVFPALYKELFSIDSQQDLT

[4] = molecular target: T3, Nuclear receptor ROR-gamma (Homo sapiens, UniProt P51449); test: Antagonist activity at transactivation domain of RORgammat (unknown origin) expressed in Drosophila Schneider cells co-expressing Gal4-DNA binding domain; assay type: cell-based, Schneider 2; conditions: for pIC50: read-out: IC50; for IC50: schneider 2
T3 sequence (P51449 whole entry): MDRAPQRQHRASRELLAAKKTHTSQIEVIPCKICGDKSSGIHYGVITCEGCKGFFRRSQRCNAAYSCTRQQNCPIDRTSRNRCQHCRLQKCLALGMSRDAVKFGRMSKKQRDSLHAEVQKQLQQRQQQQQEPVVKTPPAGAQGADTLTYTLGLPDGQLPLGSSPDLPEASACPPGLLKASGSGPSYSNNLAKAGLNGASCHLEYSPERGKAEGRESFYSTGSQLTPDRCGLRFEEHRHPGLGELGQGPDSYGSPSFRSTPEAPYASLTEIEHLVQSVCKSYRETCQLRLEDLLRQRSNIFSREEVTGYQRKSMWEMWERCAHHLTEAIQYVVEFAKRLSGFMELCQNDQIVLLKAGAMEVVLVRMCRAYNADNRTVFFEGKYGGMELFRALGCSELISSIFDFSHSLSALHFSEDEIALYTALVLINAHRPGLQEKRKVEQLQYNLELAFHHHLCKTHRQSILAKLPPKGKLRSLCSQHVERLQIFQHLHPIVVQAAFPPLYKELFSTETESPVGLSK

Row | inhibition [1] | inhibition [3] | pIC50 [4] | IC50 [4] | Structure (SMILES) | inhibition (Schneider 2) | Activity [2]
1 | inactive | inactive | – | – | COc1cc(O)c(C(CC(=O)N2C[C@@H](C)O[C@@H](C)C2)c2ccc3c(c2)OCO3)c(OC)c1 (stereo partly specified) | inactive | Non-toxic
2 | inactive | inactive | – | – | COc1ccc(C(CC(=O)N2C[C@H](C)C[C@H](C)C2)c2c(O)cc(OC)cc2OC)cc1 (stereo partly specified) | inactive | Non-toxic
3 | inactive | inactive | – | – | COc1cccc(O)c1C(CC(=O)N1CCCC(C)C1)c1ccc2c(c1)OCO2 (mixture of isomers) | inactive | Non-toxic
4 | inactive | inactive | – | – | COc1cc(O)c(C(CC(=O)N2CCC(C)CC2)c2ccc3c(c2)OCO3)c(OC)c1 (stereo unspecified) | inactive | Non-toxic
5 | inactive | inactive | 4.80 | – | COc1cc(O)c(C(CC(=O)N2CCCCC2)c2ccc3c(c2)OCO3)c(OC)c1 (stereo unspecified) | inactive | Non-toxic
6 | inactive | inactive | – | – | COc1cc(OC)c(C(CC(=O)N2CCCC(C)C2)c2ccc3c(c2)OCO3)c(OC)c1 (mixture of isomers) | inactive | Non-toxic
7 | inactive | inactive | – | – | COc1cc(O)c(C(CC(=O)N2C[C@H](C)C[C@H](C)C2)c2ccc(C(F)(F)F)cc2)c(OC)c1 (stereo partly specified) | inactive | Non-toxic
8 | inactive | inactive | – | – | COc1ccc(C(CC(=O)N2CCCC(C)C2)c2ccc3c(c2)OCO3)c(O)c1 (mixture of isomers) | inactive | Non-toxic
9 | inactive | inactive | – | – | COc1cc(O)c(C(CC(=O)N2CCCC(C)(C)C2)c2ccc3c(c2)OCO3)c(OC)c1 (stereo unspecified) | inactive | Non-toxic
10 | inactive | inactive | – | – | CCCCNC(=O)CC(c1ccc2c(c1)OCO2)c1c(O)cc(OC)cc1OC (stereo unspecified) | inactive | Non-toxic
11 | inactive | inactive | – | – | COc1cc(O)c(C(CC(=O)N2C[C@H](C)C[C@H](C)C2)c2ccc(Cl)cc2)c(OC)c1 (stereo partly specified) | inactive | Non-toxic
12 | inactive | inactive | – | – | COc1cc(O)c(C(CC(=O)N2CCCCCC2)c2ccc3c(c2)OCO3)c(OC)c1 (stereo unspecified) | inactive | Non-toxic
13 | inactive | inactive | – | – | COc1cc(O)c(C(CC(=O)N2CCCCC2C)c2ccc3c(c2)OCO3)c(OC)c1 (mixture of isomers) | inactive | Non-toxic
14 | inactive | inactive | – | – | CC1CCCN(C(=O)CC(c2ccc3c(c2)OCO3)c2cc(-c3ccccc3)ccc2O)C1 (mixture of isomers) | inactive | Non-toxic
15 | inactive | inactive | – | Not Active | COc1cc(O)c(C(CC(=O)N2CCOCC2)c2ccc3c(c2)OCO3)c(OC)c1 (stereo unspecified) | inactive | Non-toxic
16 | inactive | inactive | < 4.30 | – | CCN(CC)C(=O)CC(c1ccc2c(c1)OCO2)c1c(O)cc(OC)cc1OC (stereo unspecified) | inactive | Non-toxic
17 | inactive | inactive | – | Not Active | COc1cc(O)c(C(CC(=O)N2C[C@@H](C)N[C@@H](C)C2)c2ccc3c(c2)OCO3)c(OC)c1 (stereo partly specified) | inactive | Non-toxic
18 | inactive | inactive | – | – | COc1cc(O)c(C(CC(=O)N2C[C@H](C)C[C@H](C)C2)c2ccc(C)cc2)c(OC)c1 (stereo partly specified) | inactive | Non-toxic
19 | inactive | inactive | < 4.30 | – | COc1cc(O)c(C(CC(=O)N2CCCC2)c2ccc3c(c2)OCO3)c(OC)c1 (stereo unspecified) | inactive | Non-toxic
20 | inactive | inactive | < 4.30 | – | COc1cc(O)c(C(CC(=O)Nc2ccc(C)cc2)c2ccc3c(c2)OCO3)c(OC)c1 (stereo unspecified) | inactive | Non-toxic
21 | inactive | inactive | 5.48 | – | COc1cc(O)c(C(CC(=O)N2CCCC(C)C2)c2ccc3c(c2)OCO3)c(OC)c1 (mixture of isomers) | inactive | Non-toxic
22 | inactive | inactive | – | – | COc1cccc(C(CC(=O)N2C[C@H](C)C[C@H](C)C2)c2c(O)cc(OC)cc2OC)c1 (stereo partly specified) | inactive | Non-toxic

Row | Structure (SMILES) | inhibition [1] | inhibition [3] | pIC50 [4] | IC50 [4] | inhibition (Schneider 2) | Activity [2]
23 | C[C@H]1O[C@@H](O[C@H]2[C@@H](O)C[C@H](O[C@H]3[C@@H](O)C[C@H](O[C@H]4CC[C@@]5(C)[C@H](CC[C@@H]6[C@@H]5C[C@@H](O)[C@]5(C)[C@@H](C7=CC(=O)OC7)CC[C@]65O)C4)O[C@@H]3C)O[C@@H]2C)C[C@H](O)[C@@H]1O [DIGOXIN] | – | – | 5.70 | – | – | –
24 | COc1ccc(C(CC(=O)N2CCCC(C)C2)c2c(O)cc(OC)cc2OC)cc1 (mixture of isomers) | inactive | inactive | 5.60 | – | inactive | Non-toxic
